“Also recorded” adds a separate entry of the source. Marks after values point to notes of the source that are not given here.
Experiments:
Format in all cases: cell-based, human
[1] = system: YAP; assay: Expression of YAP in HTM cells after 17-allylamino-17-demethoxygelanamycin; details: 25 nM
[2] = system: HSP90; assay: Amount of HSP90 in HTM cells after 17-allylamino-17-demethoxygelanamycin; details: 25 nM
[3] = system: myocilin (MYOC) mRNA; assay: Myocilin mRNA in HTM cells on hydrogels or TCP after Lat B
Procedure: (§1) Materials and methods similar to those in Examples 1 and 2 were used. Alternatively or additionally, at least some of the following methods were or can be used for the experiments described hereafter.
(§2) Cell Culture. Primary HTM cells is obtained from normal human donor corneoscleral rims deemed not suitable for transplant (50). HTM cells are cultured in DMEM/F12 medium with 10% fetal bovine serum. Only cells before the 7th passage are used to conduct these studies. Only normal HTM cells are used because growth of cells from glaucomatous HTM is generally not robust enough to guarantee a successful completion of the experiment (51-54). Cells are plated onto hydrogels with Young's moduli of 5 kPa (homeomimetic) or 75 kPa (pathomimetic) that are fabricated to fit in a single well of a standard 6 well culture plate with 300,000 cells per surface. The cells are allowed to attach to the surfaces for 24 hours prior to subsequent experimentation.
(§3) Fabrication of Hydrogel Substrates. Hydrogels are composed of 5.8% acrylamide/0.2% bisacrylamide (5 kPa) or 17.4% acrylamide/0.6% bisacrylamide (75 kPa). Each of the gels contains 4% (v/v) acrylamidoisopropyl trimethyl ammonium chloride. After polymerization, the gels are stored in phosphate buffered saline for two days to allow maximal swelling. One day prior to seeding of the cells on the hydrogels, culture medium with 10% fetal bovine serum is added to the gel to allow the hydrogel to be coated with the various proteins and components present in the serum. The Young's moduli of the hydrogels have been validated by atomic force microscopy (14, 55).
(§4) Real-Time PCR. Real-time PCR is conducted with 70 ng of mRNA using a StepOne PCR machine. Reverse transcription is done for 30 minutes at 50° C. and subsequent PCR is done for 40 cycles of 15 seconds at 95° C. and 1 minute at 60° C.

[4] = system: YAP; assay: YAP immunofluorescence, nuclear/cytoplasmic localization in HTM cells after Lat-B; details: Lat-B vs DMSO, one hour after treatment
Procedure: Fixation and Immunofluoresence. One hour after treatment with Lat-B or DMSO, the cells were rinsed twice with warm DPBS and fixed in warm DPBS with 4% paraformaldehyde (Sigma-Aldrich, St. Louis, Mo.) for 20 min. They were rinsed twice more and permeabilized in DPBS with 0.5% Triton-X100 (Sigma-Aldrich, St. Louis, Mo.). They were rinsed and stored in DPBS until staining Rabbit anti-YAP (H-125, Santa Cruz Biotechnology, Santa Cruz, Calif.) was diluted in PBS containing 0.2% A-type cold fish gelatin (Sigma-Aldrich, St. Louis, Mo.) as a blocking agent. After primary staining, cells were rinsed twice in PBS. Dylight 594-conjugated goat anti-rabbit IgG (Thermo Scientific Pierce, Rockford, Ill.) was similarly diluted. After secondary staining, the cells were again rinsed, counterstained with DAPI (Life Technologies, Carlsbad, Calif.), rinsed a final time, and stored in PBS for imaging. Cells were imaged on an Axiovert 200 M (Carl Zeiss AG, Oberkochen, Germany) inverted microscope with a 20× objective. To mitigate background signal, images were filtered with a 77.5 μm rolling ball background and local median filtering (ImageJ, NIH, Bethesda, Md.).

[5] = system: PAI-1 mRNA; assay: qPCR for PAI-1 mRNA in primary HTM cells after Lat-B; details: 75 kPa hydrogels, all 3 donors
Procedure: (§5) Hydrogel Fabrication. Polyacrylamide hydrogels mimicking the stiffness of the normal (5 kPa) and glaucomatous (75 kPa) HTM were prepared utilizing previously described procedures (McKee et al., 2011; Wood et al., 2011b). Briefly, hydrogels were fabricated and then sterilized with ultraviolet light and rinsed every 24 hours for at least 72 hours in Dulbecco's phosphate buffered solution (DPBS, Hyclone, Logan, Utah) to fully hydrate the hydrogels and to ensure removal of monomeric acrylamide since free acrylamide has been previously shown to disrupt cytoskeletal structure (Arocena, 2006). […]
(§6) RNA Extraction and Quantitative Real-Time PCR. […] In order to control for slight variations in the amount of RNA loaded into the PCR reactions, the difference in cycle threshold (ΔCt) between the gene of interest (e.g. YAP) and the average cycle threshold (Ct) of the house keeping gene, 18S (ran in triplicate) were calculated. […] Ratios with respect to this control were calculated for all other values. The protein TAZ is encoded by the WWTR1 gene, for ease of reading, the mRNA obtained from the WWTR1 gene is designated as TAZ mRNA.

[6] = system: 14-3-3σ mRNA; assay: Relative quantitative PCR for 14-3-3σ mRNA in primary HTM cells on hydrogels or TCP after Lat-B; details: for Relative quantification of 14-3-3σ mRNA (mean ± SEM): 2 μM Lat-B, 1 h after treatment, TCP DMSO = 1.0; for 14-3-3σ mRNA expression versus DMSO: HTM 424 donor (FIG. 11); for level of 14-3-3σ mRNA: Example 3 (FIG. 16)
Procedure: (§7) Hydrogel Fabrication. Polyacrylamide hydrogels mimicking the stiffness of the normal (5 kPa) and glaucomatous (75 kPa) HTM were prepared utilizing previously described procedures (McKee et al., 2011; Wood et al., 2011b). Briefly, hydrogels were fabricated and then sterilized with ultraviolet light and rinsed every 24 hours for at least 72 hours in Dulbecco's phosphate buffered solution (DPBS, Hyclone, Logan, Utah) to fully hydrate the hydrogels and to ensure removal of monomeric acrylamide since free acrylamide has been previously shown to disrupt cytoskeletal structure (Arocena, 2006). Following hydration, the hydrogels (10 mm) were adhered to TCP, stored in HTM cell medium, DME/F-12 medium containing 2.5 mM L-glutamine supplemented with 1% penicillin-streptomycin with amphotericin b (Lonza, Walkerville, Md.) and 10% fetal bovine serum (Atlanta Biologicals, Lawrence, Ga.), for 24 hrs and coated with a proprietary fibronectin/collagen (FNC) mixture (AthenaES, Baltimore, Md.) for 20 minutes. The elastic modulus of the hydrogels used were previously validated with atomic force microscopy at 4±2 kPa and 71±5 kPa for the 5 and 75 kPa gels respectively (McKee et al., 2011; Radmacher et al., 1992).
(§8) HTM Cell Isolation and Culture. Primary HTM cells were isolated from corneoscleral rims considered unsuitable for transplant from donors with no prior history of ophthalmic disease as previously described (McKee et al., 2011; Rhee et al., 2003; Wood et al., 2011b). Isolated cells were cultured in HTM cell medium and all studies were conducted using cells prior to the eighth passage. HTM cells were plated at a density of 1.5 ×105 on FNC-coated TCP and 75 kPa hydrogels and 2.5×105 on FNC-coated 5 kPa hydrogels for 24 h prior to Lat-B treatment. The 5 kPa hydrogels were plated a higher density than the other substrates because HTM cells proliferate more slowly on the 5 kPa hydrogels (Wood et al., 2011a), and to ensure that there was enough mRNA present to perform PCR.
(§9) Latrunculin-B Treatment. Lyophilized Lat-B (Cal Biochem, La Jolla, Calif.) was re-suspended to a final concentration of 2.5 mM in dimethyl sulfoxide (DMSO) (Fisher, Pittsburgh, Pa.). Fresh solutions of 2.0 μM Lat-B were prepared in serum free DPBS for all experiments. Control samples were treated with an equivalent concentration of DMSO in serum free DPBS.
(§10) RNA Extraction and Quantitative Real-Time PCR. One hour after treatment with Lat-B or DMSO, RNA was extracted using the Qiagen RNeasy kit following the manufacturer's protocol (Qiagen, Valencia, Calif.). […] The cycle threshold (Ct) ranges were 11-22 for 18S, 23-27 for YAP, 23-34 for WWTR1, 27-32 for 14-3-3σ, 21-30 for CTGF and 17-23 for PAI-1. The 18S ribosomal RNA served as a reference. […] In order to control for slight variations in the amount of RNA loaded into the PCR reactions, the difference in cycle threshold (ΔCt) between the gene of interest (e.g. YAP) and the average cycle threshold (Ct) of the house keeping gene, 18S (ran in triplicate) were calculated. By calculating the difference in ΔCt between an experimental condition and the control condition (TCP DMSO), the experimental data was normalized to the control data. Ratios with respect to this control were calculated for all other values. The protein TAZ is encoded by the WWTR1 gene, for ease of reading, the mRNA obtained from the WWTR1 gene is designated as TAZ mRNA.

[7] = system: SPARC mRNA; assay: SPARC mRNA in HTM cells on hydrogels or TCP after Lat B
Procedure: as §1, §2, §3, §4

[8] = system: CTGF mRNA; assay: qPCR for CTGF mRNA in primary HTM cells after Lat-B; details: stiff (75 kPa) hydrogels, 3 donors, p=0.02
Procedure: as §5, §6

[9] = system: TAZ mRNA; assay: qPCR for TAZ (WWTR1) mRNA in primary HTM cells after Lat-B
Procedure: as §5, §6

[10] = system: YAP mRNA; assay: Relative quantitative PCR for YAP mRNA in primary HTM cells on hydrogels or TCP after Lat-B; details: for Relative quantification of YAP mRNA (mean ± SEM): 2 μM Lat-B, 1 h after treatment, TCP DMSO = 1.0; for YAP mRNA expression versus DMSO: HTM 424 donor (FIG. 8)
Procedure: as §7, §8, §9, §10

[11] = homeo- and pathomimetic hydrogels, Lat B 30 minutes, seven hours recovery, listed as Lat B
[12] = homeo- and pathomimetic hydrogels, Lat B 30 minutes, seven hours recovery, listed as Latrunculin B
[13] = tissue culture plastic (GPa), after Lat B treatment
[14] = HTM cells after Lat B treatment (Example 3)

Compound: C=CCNC1=C2C[C@@H](C)C[C@H](OC)[C@H](O)[C@@H](C)/C=C(\C)[C@H](OC(N)=O)[C@@H](OC)/C=C\C=C(/C)C(=O)NC(=CC1=O)C2=O [17-allylamino-17-demethoxygelanamycin]
- expression of YAP [1]: increased expression
- reduction of the amount of HSP90 [2]: 50%

Compound: C/C1=C/C(=O)O[C@@H]2C[C@@H](CC[C@H](C)/C=C\CC1)O[C@@](O)([C@@H]1CSC(=O)N1)C2 [Lat-B, Latrunculin-B]
- MYOC mRNA levels [3, 11]: significantly reduced
- MYOC mRNA levels [3, 12]: significantly decreased
- MYOC mRNA levels [3, 13]: no change
- YAP in the nucleus (nuclear localization) ([4]; 5 kPa hydrogel): dramatic reduction
- YAP nuclear localization ([4]; TCP): some nuclear localization remained
- PAI-1 mRNA expression versus DMSO [5]: less and decreased
- Relative quantification of 14-3-3σ mRNA (mean ± SEM) ([6]; HTM 211 cells, 5 kPa hydrogel): 15 ± 0.82^a
- Relative quantification of 14-3-3σ mRNA (mean ± SEM) ([6]; HTM 211 cells, 75 kPa hydrogel): 29 ± 1.8^b, †
- Relative quantification of 14-3-3σ mRNA (mean ± SEM) ([6]; HTM 211 cells, TCP (>1 GPa)): 1.2 ± 0.25^c
- Relative quantification of 14-3-3σ mRNA (mean ± SEM) ([6]; HTM 424 cells, 5 kPa hydrogel): 4.8 ± 0.12^a, †
- Relative quantification of 14-3-3σ mRNA (mean ± SEM) ([6]; HTM 424 cells, 75 kPa hydrogel): 5.6 ± 0.51^a, †
- Relative quantification of 14-3-3σ mRNA (mean ± SEM) ([6]; HTM 424 cells, TCP (>1 GPa)): 0.73 ± 0.20^b ^
- Relative quantification of 14-3-3σ mRNA (mean ± SEM) ([6]; HTM 431 cells, 5 kPa hydrogel): 1.09 ± 0.02^a ^
- Relative quantification of 14-3-3σ mRNA (mean ± SEM) ([6]; HTM 431 cells, 75 kPa hydrogel): 1.57 ± 0.11^b, †
- Relative quantification of 14-3-3σ mRNA (mean ± SEM) ([6]; HTM 431 cells, TCP (>1 GPa)): 0.53 ± 0.02^c, †
- 14-3-3σ mRNA expression versus DMSO ([6]; cells grown on TCP): did not have significantly different
- 14-3-3σ mRNA expression versus DMSO ([6]; cells grown on hydrogels): significantly more
- level of 14-3-3σ mRNA ([6]; softer (homeomimetic) hydrogels): no effect
- level of 14-3-3σ mRNA ([6]; stiffer (pathomimetic) hydrogels, listed as Lat B): increased
- level of 14-3-3σ mRNA ([6]; stiffer (pathomimetic) hydrogels, listed as Latrunculin B): doubled
- 14-3-3σ expression versus DMSO ([6]; stiffer hydrogels, all three donors (HTM 211, 424, 431)): markedly increased
- SPARC mRNA levels [7, 11]: significantly reduced
- SPARC mRNA levels [7, 12]: significantly decreased
- SPARC mRNA levels [7, 13]: no change
- CTGF mRNA expression versus DMSO [8]: significantly decreased; also recorded: significantly less
- decrease of TAZ mRNA levels [9, 14]: 1.9 fold
- TAZ mRNA versus DMSO ([9]; stiff (75 kPa) hydrogels, 3 donors, P=0.11): trend towards less; also recorded: markedly less
- YAP mRNA versus DMSO ([10]; 75 kPa hydrogels, one hour after treatment, all three donors, p<0.05): significantly less
- Relative quantification of YAP mRNA (mean ± SEM) ([10]; HTM 211 cells, 5 kPa hydrogel): 0.33 ± 0.01^a ^
- Relative quantification of YAP mRNA (mean ± SEM) ([10]; HTM 211 cells, 75 kPa hydrogel): 0.06 ± 0.01^b, †
- Relative quantification of YAP mRNA (mean ± SEM) ([10]; HTM 211 cells, TCP (>1 GPa)): 0.48 ± 0.0^c, †
- Relative quantification of YAP mRNA (mean ± SEM) ([10]; HTM 424 cells, 5 kPa hydrogel): 0.79 ± 0.06^a, †
- Relative quantification of YAP mRNA (mean ± SEM) ([10]; HTM 424 cells, 75 kPa hydrogel): 0.59 ± 0.05^a, †
- Relative quantification of YAP mRNA (mean ± SEM) ([10]; HTM 424 cells, TCP (>1 GPa)): 1.3 ± 0.39^a
- Relative quantification of YAP mRNA (mean ± SEM) ([10]; HTM 431 cells, 5 kPa hydrogel): 1.6 ± 0.01^a, †
- Relative quantification of YAP mRNA (mean ± SEM) ([10]; HTM 431 cells, 75 kPa hydrogel): 0.83 ± 0.05^b, †
- Relative quantification of YAP mRNA (mean ± SEM) ([10]; HTM 431 cells, TCP (>1 GPa)): 0.55 ± 0.02^c, †
- decrease of YAP mRNA levels [10, 14]: 1.8 fold
- YAP mRNA expression versus DMSO ([10]; cells grown on TCP): did not have significantly different
- YAP mRNA expression versus DMSO ([10]; cells grown on hydrogels): significantly less

From patent publication US9206423B2, “Methods of modulating compliance of the trabecular meshwork” (The Regents of the University of California, priority 2012, dated 2015)
